Earlier results in US20160008334A1, “Preparations for the Treatment of Sleep-Related Respiratory Disorders” (priority 2013, published 2016).

Details: compared with the barbiturate phenobarbital; one study (drugbank.ca DB00366)

CN(C)CCOC(C)(c1ccccc1)c1ccccn1 (stereo not shown) [doxylamine succinate]
effectiveness for use as a sedative: more effective than the barbiturate phenobarbital
